Laboratory results as given in patent publication US20260159536A1, “AKR1C3-ACTIVATED DNA ALKYLATING AGENT, AND MEDICAL APPLICATION THEREOF” (ASCENTAWITS PHARMACEUTICALS, LTD., priority 2021, published 2026).
pIC50: −log10 of the molar value. Read-outs that look alike come from different tables or passages of the source.

What was measured:
H460 cells = assay: Inhibition of H460 cancer cell proliferation (CTG, 72 h); type: cell-based; conditions: Homo sapiens, NCI-H460
Experimental: If not otherwise specified, IC50 values were measured by the following experimental methods:
c) The cell suspension was added to 96-well plate with 100 μL per well and 2000 cells/well of cell density.
a) Cells were plated for 24 hours, and then the compounds acted singly. 99 μL of growth medium was supplemented per well, and then 1 μL of 200× compound was added, gently shaken to ensure uniform mixing, and then placed in a 37° C., 5% CO2 incubator.
b) The cell plate was placed in the incubator for 72 hours.
b) 100 μL of CTG reagent (CelltiterGlo kit) was added to each well, the plate was placed in a rapid oscillator and shaken for 2 minutes, and then placed at room temperature for 30 minutes away from light.
c) The chemiluminescence signal value was read with Envision instrument.
The IC50 was calculated using GraphPad Prism 8 software and the IC50 (half inhibitory concentration) of the compounds was obtained using the following non-linear fitting formula: […]

NCI-H1944 = assay: AKR1C3-dependent cytotoxicity, NSCLC cell line NCI-H1944; type: cell-based; conditions: Homo sapiens
Experimental: (§1) The tested compound was then added. The compound was dissolved in 100% DMSO at 200 times of the desired final test concentration. When the medicament was added, the compound was further diluted to 4 times of the desired final test concentration by using the complete medium. 50 μL of aliquots of the compound with specific concentration were added to the microwells containing 150 μL of medium, and then the final medicament concentration was obtained. […] The medicament was then washed. […] After the incubation was finished, the Alamar Blue was used to analyze and quantify the living cells.

NCI-H2228 = assay: AKR1C3-dependent cytotoxicity, NSCLC cell line NCI-H2228; type: cell-based; conditions: Homo sapiens
Experimental: as §1

NCIH1755 = assay: AKR1C3-dependent cytotoxicity, NSCLC cell line NCIH1755; type: cell-based; conditions: Homo sapiens, NCI-H1755
Experimental: as §1

NCI-H1563 = assay: AKR1C3-dependent cytotoxicity, NSCLC cell line NCI-H1563; type: cell-based; conditions: Homo sapiens
Experimental: as §1

NCI-H1792 = assay: AKR1C3-dependent cytotoxicity, NSCLC cell line NCI-H1792; type: cell-based; conditions: Homo sapiens
Experimental: as §1

NCIH2106 = assay: AKR1C3-dependent cytotoxicity, NSCLC cell line NCIH2106; type: cell-based
Experimental: as §1

NCI-H522 = assay: AKR1C3-dependent cytotoxicity, NSCLC cell line NCI-H522; type: cell-based; conditions: Homo sapiens
Experimental: as §1

NCI-H23 = assay: AKR1C3-dependent cytotoxicity, NSCLC cell line NCI-H23; type: cell-based; conditions: Homo sapiens
Experimental: as §1

[1] = system: HuPrime model GA6201 human gastric cancer; conditions: for Relative tumor volume (x ± S) / T/C (%) / TGI (%) / Tumor volume (x ± S): Day 38
Experimental: The test was divided into groups of the test drug Isocyclophosphamide 60 mg/kg group, the test drug AST-3424 5 mg/kg group, the test drug A compound 2.5 mg/kg and 5 mg/kg groups, and normal saline (pH 7.0-7.6) vehicle control group, a total of 5 groups, with 5 mice per group.
In the above dosing regimen, Isocyclophosphamide was designed based on the best dosing regimen with maximum safe dosage as recited in the document (Jessica D. Sun, Qian Liu, Dharmendra Ahluwalia, Damien J. Ferraro, Yan Wang, Don Jung, Mark D. Matteucci, and Charles P. Hart. Comparison of hypoxia-activated prodrug evofosfamide (TH-302) and ifosfamide in preclinical non-small cell lung cancer models [J]. Cancer Biology & Therapy, 2016, 17(4): 371-380).

P-gp = target: T1, P-gp (Homo sapiens, UniProt P08183); assay: P-gp substrate evaluation, MDCKII-MDR1 penetration test with or without Verapamil; type: in vitro ADME
T1 construct: expressed in transfected cells; host or cells: MDCKII-MDR1 cells
Experimental: The conditions of the incubator were set as 37° C., 5% CO2, and 95% of the relative humidity.
After that, the MDCKII-MDR1 cells can be used for the penetration test.
(1) MDCKII-MDR1 transwell culture plate was taken out from the incubator.
(6) The upper and lower transportations were pooled and then incubated at 37° C. for 2 h.
After the sample tubes were vortexed for 10 min, and centrifuged at 3220 g for 30 min. […] Each sample was adopted to the three parallel incubation.
Efflux Ratio was calculated by the following formula: […]
Recovery was calculated by the following formula: […]

[2] = Liver microsome stability, human; type: in vitro ADME; conditions: for Percentage remaining after 30 minutes: Human liver microsomes
Experimental: (§2) 1) Two individual experiments were performed.
(§3) All experiments were performed in duplicate.

[3] = Liver microsome stability, monkey; type: in vitro ADME; conditions: for Percentage remaining after 30 minutes: Monkey liver microsomes
Experimental: as §2, §3

[4] = Liver microsome stability, rat; type: in vitro ADME; conditions: for Percentage remaining after 30 minutes: Rat liver microsomes
Experimental: as §2, §3

[5] = Liver microsome stability, mouse; type: in vitro ADME; conditions: for Percentage remaining after 30 minutes: Mouse liver microsomes
Experimental: as §2, §3

T1 sequence (P08183 whole entry): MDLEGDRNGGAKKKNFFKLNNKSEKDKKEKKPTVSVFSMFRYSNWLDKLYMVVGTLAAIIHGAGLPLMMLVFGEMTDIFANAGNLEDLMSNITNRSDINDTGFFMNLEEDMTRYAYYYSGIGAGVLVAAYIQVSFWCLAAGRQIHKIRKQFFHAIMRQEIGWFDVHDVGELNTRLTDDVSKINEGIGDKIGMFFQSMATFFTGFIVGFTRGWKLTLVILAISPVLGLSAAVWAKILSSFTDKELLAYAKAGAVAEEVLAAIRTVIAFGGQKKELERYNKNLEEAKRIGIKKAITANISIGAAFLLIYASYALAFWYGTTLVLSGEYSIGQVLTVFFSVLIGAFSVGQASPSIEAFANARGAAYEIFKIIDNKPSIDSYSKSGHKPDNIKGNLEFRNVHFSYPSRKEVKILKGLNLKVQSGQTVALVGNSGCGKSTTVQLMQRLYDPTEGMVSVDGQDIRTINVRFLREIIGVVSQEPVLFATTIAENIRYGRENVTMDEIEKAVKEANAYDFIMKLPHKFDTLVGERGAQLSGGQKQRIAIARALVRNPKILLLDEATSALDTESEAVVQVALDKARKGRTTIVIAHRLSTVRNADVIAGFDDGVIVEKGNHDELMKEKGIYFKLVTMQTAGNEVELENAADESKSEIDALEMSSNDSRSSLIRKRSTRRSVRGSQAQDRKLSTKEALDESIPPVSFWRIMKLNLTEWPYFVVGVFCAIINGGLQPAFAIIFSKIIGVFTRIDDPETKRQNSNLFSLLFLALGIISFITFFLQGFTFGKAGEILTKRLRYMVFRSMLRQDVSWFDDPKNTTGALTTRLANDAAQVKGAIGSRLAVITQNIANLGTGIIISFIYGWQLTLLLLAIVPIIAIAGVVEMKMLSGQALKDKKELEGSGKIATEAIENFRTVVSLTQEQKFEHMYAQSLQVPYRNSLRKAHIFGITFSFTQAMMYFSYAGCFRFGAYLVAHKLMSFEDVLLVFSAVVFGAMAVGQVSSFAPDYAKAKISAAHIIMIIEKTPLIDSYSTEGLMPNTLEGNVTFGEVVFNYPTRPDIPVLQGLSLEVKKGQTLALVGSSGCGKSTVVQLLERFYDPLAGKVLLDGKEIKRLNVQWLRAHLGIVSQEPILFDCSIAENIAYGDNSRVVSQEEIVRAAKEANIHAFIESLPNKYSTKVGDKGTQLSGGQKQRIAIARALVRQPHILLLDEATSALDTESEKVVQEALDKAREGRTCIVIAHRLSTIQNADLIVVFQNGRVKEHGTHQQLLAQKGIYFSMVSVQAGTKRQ

Compound `O=[N+]([O-])c1ccc(C(OP(=O)(N2CC2)N2CC2)C(F)(F)F)cc1Oc1ccc(-c2ccc(F)cc2)c(F)c1` (racemic) [Compound A] has a pIC50 (H460 cells) of 8.16, a pIC50 (NCI-H1944) of 7.15 and a pIC50 (NCI-H2228) of 7.89. For the same compound, the pIC50 (NCIH1755) was 6.24, the pIC50 (NCI-H1563) was 6.34 and the pIC50 (NCI-H1792) was 6.43. It also gave a pIC50 (NCIH2106) of 5.16, a pIC50 (NCI-H522) of 4.85 and a pIC50 (NCI-H23) of 4.92. The “relative tumor inhibition rate (TGI)” value ([1]; 2.5 mg/kg and 5 mg/kg i.v. QWx2) was “more than 96%”, the “Relative tumor volume (x ± S)” value ([1]; 2.5 mg/kg i.v. QWx2) was 0.29 ± 0.08 and the “T/C (%)” value ([1]; 2.5 mg/kg i.v. QWx2) was 3.15%. The “TGI (%)” value ([1]; 2.5 mg/kg i.v. QWx2) was 96.85%, the “Tumor volume (x ± S)” value ([1]; 2.5 mg/kg i.v. QWx2) was 28.69 ± 8.2 and the Tumor volume ([1]; 2.5 mg/kg i.v., 0 day) was 94.61 mm^3. The Tumor volume ([1]; 2.5 mg/kg i.v., 3 days) was 120.19 mm^3, the Tumor volume ([1]; 2.5 mg/kg i.v., 7 days) was 118.33 mm^3 and the Tumor volume ([1]; 2.5 mg/kg i.v., 10 days) was 118.65 mm^3. For the same compound, the Tumor volume ([1]; 2.5 mg/kg i.v., 14 days) was 96.08 mm^3, the Tumor volume ([1]; 2.5 mg/kg i.v., 17 days) was 76.14 mm^3 and the Tumor volume ([1]; 2.5 mg/kg i.v., 21 days) was 71.72 mm^3. The Tumor volume ([1]; 2.5 mg/kg i.v., 24 days) was 57.94 mm^3, the Tumor volume ([1]; 2.5 mg/kg i.v., 28 days) was 45.51 mm^3 and the Tumor volume ([1]; 2.5 mg/kg i.v., 31 days) was 43.44 mm^3. For the same compound, the Tumor volume ([1]; 2.5 mg/kg i.v., 35 days) was 32.04 mm^3, the Tumor volume ([1]; 2.5 mg/kg i.v., 38 days) was 28.69 mm^3 and the Tumor volume ([1]; 2.5 mg/kg i.v., 42 days) was 23.49 mm^3. For the same compound, the Tumor volume ([1]; 2.5 mg/kg i.v., 45 days) was 25.00 mm^3, the Tumor volume ([1]; 2.5 mg/kg i.v., 49 days) was 17.72 mm^3 and the “Relative tumor volume (x ± S)” value ([1]; Compound A 5 mg/kg i.v. QWx2) was 0.19 ± 0.08. For the same compound, the “T/C (%)” value ([1]; Compound A 5 mg/kg i.v. QWx2) was 2.04%, the “TGI (%)” value ([1]; Compound A 5 mg/kg i.v. QWx2) was 97.96% and the “Tumor volume (x ± S)” value ([1]; Compound A 5 mg/kg i.v. QWx2) was 19.97 ± 10.18. For the same compound, the Tumor volume ([1]; Compound A 5 mg/kg i.v., 0 day) was 94.36 mm^3, the Tumor volume ([1]; Compound A 5 mg/kg i.v., 3 days) was 118.42 mm^3 and the Tumor volume ([1]; Compound A 5 mg/kg i.v., 7 days) was 101.91 mm^3. It also gave a Tumor volume ([1]; Compound A 5 mg/kg i.v., 10 days) of 97.17 mm^3, a Tumor volume ([1]; Compound A 5 mg/kg i.v., 14 days) of 74.20 mm^3 and a Tumor volume ([1]; Compound A 5 mg/kg i.v., 17 days) of 59.77 mm^3. The Tumor volume ([1]; Compound A 5 mg/kg i.v., 21 days) was 46.21 mm^3, the Tumor volume ([1]; Compound A 5 mg/kg i.v., 24 days) was 44.03 mm^3 and the Tumor volume ([1]; Compound A 5 mg/kg i.v., 28 days) was 38.50 mm^3. It also gave a Tumor volume ([1]; Compound A 5 mg/kg i.v., 31 days) of 35.92 mm^3, a Tumor volume ([1]; Compound A 5 mg/kg i.v., 35 days) of 22.70 mm^3 and a Tumor volume ([1]; Compound A 5 mg/kg i.v., 38 days) of 19.97 mm^3. The Tumor volume ([1]; Compound A 5 mg/kg i.v., 42 days) was 5.05 mm^3, the Tumor volume ([1]; Compound A 5 mg/kg i.v., 45 days) was 11.14 mm^3 and the Tumor volume ([1]; Compound A 5 mg/kg i.v., 49 days) was 9.96 mm^3. The “body weight change / toxic effects” value ([1]; GA6201 model, tested doses) was “no effect on the body weights”, the P-gp substrate (P-gp; MDCKII-MDR1, with and without Verapamil) was “not substrates for Pgp” and the Papp A→B at 2 h (P-gp; dog, MDCK-MDR1) was 0.18 ×10⁻⁶ cm/s. For the same compound, the Papp B→A at 2 h (P-gp; dog, MDCK-MDR1) was 0.24 ×10⁻⁶ cm/s, the recovery at 2 h (P-gp; dog, MDCK-MDR1, Verapamil 0 μM, read-out: Recovery (%) AP-BL) was 5.03% and the recovery at 2 h (P-gp; dog, MDCK-MDR1, Verapamil 0 μM, read-out: Recovery (%) BL-AP) was 4.34%. For the same compound, the recovery at 2 h (P-gp; dog, MDCK-MDR1, with Verapamil 100 μM, Verapamil 100 μM, read-out: Recovery (%) AP-BL) was 5.7%, the recovery at 2 h (P-gp; dog, MDCK-MDR1, with Verapamil 100 μM, Verapamil 100 μM, read-out: Recovery (%) BL-AP) was 12.6% and the “Percentage remaining after 30 minutes” value ([2]; with the addition of NADPH) was 115.25%. The “Percentage remaining after 30 minutes” value ([2]; without the addition of NADPH) was 111.93%, the “stability in liver microsomes” value ([2]; human) was “relatively stable” and the “Percentage remaining after 30 minutes” value ([3]; with the addition of NADPH) was 82.29%. For the same compound, the “Percentage remaining after 30 minutes” value ([3]; without the addition of NADPH) was 81.30%, the “stability in liver microsomes” value ([3]; monkey) was “relatively stable” and the “Percentage remaining after 30 minutes” value ([4]; with the addition of NADPH) was 92.10%. The “Percentage remaining after 30 minutes” value ([4]; without the addition of NADPH) was 114.62%, the “stability in liver microsomes” value ([4]; rat) was “relatively unstable” and the “Percentage remaining after 30 minutes” value ([5]; with the addition of NADPH) was 98.59%. For the same compound, the “Percentage remaining after 30 minutes” value ([5]; without the addition of NADPH) was 104.30% and the “stability in liver microsomes” value ([5]; mouse) was “relatively stable”.
